The assay concerns the target T1, Thrombin (Factor IIa) (Homo sapiens, UniProt P00734).
T1 construct: purchased Centraal Laboratorium voor Bloedtransfusie, Amsterdam, The Netherlands
Briefly: Anti-thrombin assay (hydrolysis of chromogenic substrate S-2238). The format is biochemical. The settings on record: chromogenic substrate S-2238, TNP buffer, 37° C., absorbance at 405 nm. Here is the method: Thrombin (Factor IIa) is a factor in the coagulation cascade. The anti-thrombin activity of compounds of the present invention was assessed by measuring spectrophotometrically the rate of hydrolysis of the chromogenic substrate s-2238 exterted by thrombin. This assay for anti-thrombin activity in a buffer system was used to assess the IC50-value of a test compound.
Test medium: Tromethamine-NaCl-polyethylene glycol 6000 (TNP) buffer. Reference compound: 12581 (Kabi) Vehicle: TNP buffer. Solubilisation can be assisted with dimethylsulphoxide, methanol, ethanol, acetonitrile or tert-butyl alcohol which are without adverse effects in concentrations up to 2.5% in the final reaction mixture.
Reagents*: 1. Tromethamine-NaCl (TN) buffer. Composition of the buffer: Tromethamine (Tris) 6.057 g (50 mmol), NaCl 5.844 g (100 mmol), water to 1 l. The pH of the solution is adjusted to 7.4 at 37° C. with HCl (10 mmol·l^−1). 2. TNP buffer: Polyethylene glycol 6000 is dissolved in TN buffer to give a concentration of 3 g·l^−1. 3. S-2238 solution: One vial S-2238 (25 mg; Kabi Diagnostica, Sweden) is dissolved in 20 ml TN buffer to give a concentration of 1.25 mg·ml^−1 (2 mmol·l^−1). 4. Thrombin solution: Human thrombin (16 000 nKat·vial^−1; Centraal Laboratorium voor Bloedtransfusie, Amsterdam, The Netherlands) is dissolved in TNP buffer to give a stock solution of 835 nKat·ml^−1. Immediately before use this solution is diluted with TNP buffer to give a concentration of 3.34 nKat·ml^−1.
The test and reference compounds are dissolved in Milli-Q water to give stock concentrations of 10^−2 mol·l^−1. Each concentration is stepwise diluted with the vehicle to give concentrations of 10^−3, 10^−4 and 10^−5 mol·l^−1. The dilutions, including the stock solution, are used in the assay (final concentrations in the reaction mixture: 3·10^−3; 10^−3; 3·10^−4; 10^−4; 3·10^−5; 10^−5; 3·10^−6; and 10^−6 mol·l^−1, respectively).
At room temperature 0.075 ml and 0.025 ml test compound or reference compound solutions or vehicle are alternately pipetted into the wells of a microtiter plate and these solutions are diluted with 0.115 ml and 0.0165 ml TNP buffer, respectively. An aliquot of 0.030 ml S-2238 solution is added to each well and the plate is pre-heated and pre-incubated with shaking in an incubator (Amersham) for 10 min. at 37° C. Following pre-incubation the hydrolysis of S-2238 is started by addition of 0.030 ml thrombin solution to each well. The plate is incubated (with shaking for 30 s) at 37° C. Starting after 1 min of incubation, the absorbance of each sample at 405 nm is measured every 2 min. for a period of 90 min. using a kinetic microtiter plate reader (Twinreader plus, Flow Laboratories).
All data are collected in an IBM personal computer using LOTUS-MEASURE. For each compound concentration (expressed in mol·l^−1 reaction mixture) and for the blank the absorbance is plotted versus the reaction time in min.
Evaluation of responses: For each final concentration the maximum absorbance was calculated from the assay plot. The IC50-value (final concentration, expressed in μmol·l^−1, causing 50% inhibition of the maximum absorbance of the blank) was calculated using the logit transformation analysis according to Hafner et al. (Arzneim.-Forsch./Drug Res. 1977; 27(II): 1871-3).
As usually defined, the IC50 is the concentration that inhibits the measured activity by half. Read a high IC50 as weaker potency in that assay. For the molecule `NCC#CCC(NC(=O)C1CCCN1C(=O)C(CC1CCCCC1)NCC(=O)O)C(=O)c1nccs1` (stereo not drawn) [Example 1], the IC50 was determined as 0.56 µM.

Regarding `CNC(CC1CCCCC1)C(=O)N1CCCC1C(=O)NC(CC#CCN)C(=O)C(=O)O` [Example 3, N-Me-D-Cha-Pro-LysininylΨ[COCO]—OH], 4.3 µM corresponded to half-maximal inhibition (IC50).

With `NCC#CCC(NC(=O)C1CCCN1C(=O)C(Cc1ccccc1)NCC(=O)O)C(=O)C(=O)O` [Example 11, HOOC—CH2-D-Phe-Pro-LysininylΨ[COCO]—OH], the IC50 was 5 µM. This IC50 and that of the molecule before are within 1.5-fold of each other.

As to `NCC#CCC(NC(=O)C1CCCN1C(=O)C(CC1CCCCC1)NCC(=O)O)C(=O)C(=O)N1CCC1` (stereo not drawn) [Example 15], the half-inhibitory concentration (IC50) stood at 0.7 µM.

In turn, `NCC#CCC(NC(=O)C1CCCN1C(=O)C1NCCC2CCCCC21)C(=O)c1nccs1` (stereo not drawn) [Example 27] came in with an IC50 of 4.64 µM.

Regarding `NCCCCC(NC(=O)[C@@H]1CCCN1C(=O)[C@@H](Cc1ccc(Cl)cc1)NCC(=O)O)C(=O)c1nccs1` (stereo partly drawn) [Example 30, HOOC—CH2-D-p-Cl-Phe-Pro-Lysininyl-(2-thiazolyl)], the midpoint of inhibition, the IC50, lay at 5.1 µM. This IC50 and that of the molecule before are within 1.5-fold of each other.

For the origin of these results see patent US6410684B1, “Serine protease inhibitors” (Akzo Nobel N.V., priority 1996, dated 2002).
